According to DBAASP:
Converted amounts (≈) assume the structure as drawn.

How the values were obtained:
Experiment in all cases: ≥ marks a high value that may be exact or a test limit, other limits are often not marked, values filed in µg/mL are converted to µM
[1] = tested on: Staphylococcus aureus ATCC 25923
[2] = tested on: Bacillus subtilis ATCC 6633
[3] = tested on: Escherichia coli ATCC 25922
[4] = tested on: Candida albicans ATCC 20032
Staphylococcus aureus = tested on: Staphylococcus aureus
Escherichia coli W160-37 = tested on: Escherichia coli W160-37
[5] = tested on: Pseudomonas aeruginosa ATCC 27853
[6] = tested on: Klebsiella pneumoniae ATCC 700603
[7] = tested on: Acinetobacter baumannii ATCC 19606
[8] = tested on: Bacillus subtilis ATCC 23857
Bacillus subtilis 168 = tested on: Bacillus subtilis 168
[9] = tested on: Escherichia coli DH5alpha
[10] = tested on: Erwinia amylovora PMV 6076
[11] = tested on: Pseudomonas syringae pv. syringae EPS 94
[12] = tested on: Pseudomonas syringae pv. actinidiae Psa3700.1.1
[13] = tested on: Xanthomonas arboricola pv. pruni CFBP 5563
[14] = tested on: Xanthomonas campestris pv. Vesicatoria 2133-2
[15] = tested on: Xanthomonas fragariae Xf349-9A

| Compound | MIC [1] [µM] | MIC [2] [µM] | MIC [3] [µM] | MIC [4] [µM] | MIC (Escherichia coli W160-37) [µM] | other results |
| --- | --- | --- | --- | --- | --- | --- |
| CC[C@H](C)[C@H](N)C(=O)N[C@@H](CC(C)C)C(=O)N1CCC[C@H]1C(=O)N[C@@H](CC(C)C)C(=O)N[C@@H](CCCCN)C(=O)N[C@@H](CC(C)C)C(=O)N1CCC[C@H]1C(=O)N[C@@H](Cc1c[nH]c2ccccc12)C(=O)N[C@@H](CC(C)C)C(=O)N1CCC[C@H]1C(=O)N[C@@H](CC(C)C)C(=O)N[C@@H](CCCN=C(N)N)C(=O)N[C@@H](CCCN=C(N)N)C(N)=O [ILPLKLPWLPLRR] |  |  |  |  | 12.4 (≈ 20 µg/mL) | MIC (Staphylococcus aureus): 6.19 µM (≈ 9.99 µg/mL) |
| CC(C)C[C@@H]1NC(=O)[C@H](CO)NC(=O)[C@H](Cc2ccc(O)cc2)NC(=O)[C@H](CCC(=O)O)NC(=O)[C@H](Cc2ccccc2)NC(=O)[C@H](C)NC(=O)[C@H](Cc2ccccc2)NC(=O)[C@@H]2CSSC[C@@H](C(=O)N[C@H](C(=O)N3CCC[C@H]3C(=O)N[C@@H](CC(N)=O)C(=O)N[C@H](C(=O)N[C@@H](Cc3ccccc3)C(=O)O)[C@@H](C)O)C(C)C)NC(=O)[C@@H]3CSSC[C@H](NC(=O)CNC(=O)[C@H](Cc4c[nH]c5ccccc45)NC(=O)[C@@H](NC(=O)[C@H](C)NC(=O)[C@@H](N)Cc4ccccc4)C(C)C)C(=O)N[C@@H](C)C(=O)N[C@@H](CC(=O)O)C(=O)N[C@@H](Cc4ccc(O)cc4)C(=O)N[C@@H](CCCN=C(N)N)C(=O)NCC(=O)N[C@@H](Cc4ccc(O)cc4)C(=O)N[C@@H](CSSC[C@H](NC(=O)CNC(=O)[C@H](CCCCN)NC(=O)[C@@H]4CCCN4C(=O)CNC1=O)C(=O)N[C@@H]([C@@H](C)O)C(=O)N[C@@H](CCC(=O)O)C(=O)NCC(=O)N[C@@H](Cc1ccc(O)cc1)C(=O)N[C@@H](C(C)C)C(=O)N3)C(=O)N[C@@H](CCCN=C(N)N)C(=O)N[C@@H](C)C(=O)N[C@@H](C)C(=O)N2 [FAVWGCADYRGYCRAACFAFEYSLGPKGCTEGYVCCVPNTF] | 14.4 (≈ 64.9 µg/mL) | 29.8 (≈ 135 µg/mL) | 35.3 (≈ 160 µg/mL) | ≥ 44.2 |  |  |
| CSCC[C@H](NC(=O)CNC(=O)[C@@H](NC(=O)[C@H](CO)NC(=O)[C@H](Cc1ccccc1)NC(=O)[C@@H](NC(=O)[C@H](Cc1ccccc1)NC(=O)[C@H](Cc1ccc(O)cc1)NC(=O)[C@H](CO)NC(=O)[C@H](CCC(=O)O)NC(=O)[C@@H](N)[C@@H](C)O)C(C)C)C(C)C)C(N)=O [TESYFVFSVGM] |  |  |  |  |  | MIC [10]: ≥ 50 µM; MIC [11]: ≥ 50 µM; MIC [12]: 17.7 µM (≈ 22.4 µg/mL); MIC [13]: 17.7 µM (≈ 22.4 µg/mL); MIC [14]: ≥ 50 µM; MIC [15]: ≥ 50 µM |
| CC[C@H](C)[C@H](NC(=O)[C@H](Cc1c[nH]c2ccccc12)NC(=O)[C@H](CCCCN)NC(=O)[C@H](CC(C)C)NC(=O)[C@H](Cc1ccccc1)NC(=O)[C@H](CCCCN)NC(=O)[C@H](CC(C)C)NC(=O)[C@H](CC(C)C)NC(=O)[C@H](CCCCN)NC(=O)[C@@H]1CCCN1)C(=O)NCC(=O)O [PKLLKFLKWIG] |  |  |  |  | 31 (≈ 41.6 µg/mL) | MIC (Staphylococcus aureus): 8 µM (≈ 10.7 µg/mL) |

Continued, in another order:

| MIC [1] [µM] | MIC [2] [µM] | MIC [3] [µM] | MIC [4] [µM] | MIC (Escherichia coli W160-37) [µM] | Compound | other results |
| --- | --- | --- | --- | --- | --- | --- |
| > 50.2 | ≥ 50.2 | > 50.2 | ≥ 50.2 |  | CC[C@H](C)[C@H](N)C(=O)N[C@@H](CC(C)C)C(=O)NCC(=O)N1CCC[C@H]1C(=O)N[C@H](C(=O)N[C@H](C(=O)N[C@@H](CO)C(=O)N[C@H](C(=O)N[C@H](C(=O)NCC(=O)N[C@@H](CC(N)=O)C(=O)N[C@H](C(=O)N[C@@H](CC(C)C)C(=O)NCC(=O)NCC(=O)N[C@@H](CC(C)C)C(=O)N[C@@H](CC(C)C)C(=O)N[C@@H](CCCCN)C(=O)N[C@@H](CC(N)=O)C(=O)N[C@@H](CC(C)C)C(N)=O)C(C)C)[C@@H](C)CC)[C@@H](C)O)[C@@H](C)CC)C(C)C [ILGPVISTIGNVLGGLLKNL] |  |
| > 52.1 | ≥ 52.1 | > 52.1 | ≥ 52.1 |  | CC[C@H](C)[C@H](N)C(=O)N[C@@H](CO)C(=O)NCC(=O)N1CCC[C@H]1C(=O)N[C@H](C(=O)N[C@@H](CC(C)C)C(=O)NCC(=O)N[C@@H](CC(C)C)C(=O)N[C@H](C(=O)NCC(=O)N[C@@H](CC(N)=O)C(=O)N[C@@H](C)C(=O)N[C@@H](CC(C)C)C(=O)NCC(=O)NCC(=O)N[C@@H](CC(C)C)C(=O)N[C@H](C(=O)N[C@@H](CCCCN)C(=O)N[C@@H](CCCCN)C(=O)N[C@H](C(N)=O)[C@@H](C)CC)[C@@H](C)CC)C(C)C)C(C)C [ISGPVLGLVGNALGGLIKKI] |  |
| 1.8 (≈ 4.7 µg/mL) | 14.4 (≈ 37.5 µg/mL) | > 38.3 | 14.4 (≈ 37.5 µg/mL) |  | CC[C@H](C)[C@H](NC(=O)CN)C(=O)NCC(=O)NCC(=O)N[C@@H](C)C(=O)N[C@@H](CC(C)C)C(=O)N[C@@H](CC(C)C)C(=O)N[C@@H](CO)C(=O)N[C@H](C(=O)NCC(=O)N[C@@H](CCCCN)C(=O)N[C@@H](CC(C)C)C(=O)N[C@@H](C)C(=O)N[C@@H](CC(C)C)C(=O)N[C@@H](CCCCN)C(=O)NCC(=O)N[C@@H](CC(C)C)C(=O)N[C@@H](C)C(=O)N[C@@H](CC(N)=O)C(=O)N[C@H](C(=O)N[C@@H](CC(C)C)C(=O)N[C@@H](C)C(=O)N[C@@H](CC(=O)O)C(=O)N[C@@H](CCCCN)C(=O)N[C@@H](Cc1ccccc1)C(=O)N[C@@H](C)C(=O)N[C@@H](CC(N)=O)C(N)=O)C(C)C)C(C)C [GIGGALLSVGKLALKGLANVLADKFAN] |  |
|  |  |  |  | ≥ 40.8 | CC[C@H](C)[C@H](NC(=O)[C@H](CC(C)C)NC(=O)[C@H](C)NC(=O)[C@H](CC(C)C)NC(=O)[C@@H](N)Cc1ccccc1)C(=O)N[C@@H](CC(C)C)C(=O)N[C@@H](CCCN=C(N)N)C(=O)N[C@@H](CCCCN)C(=O)N[C@H](C(=O)N[C@H](C(=O)N[C@H](C(=O)N[C@@H](C)C(=O)N[C@@H](CC(C)C)C(N)=O)[C@@H](C)O)C(C)C)[C@@H](C)CC [FLALILRKIVTAL] |  |
| 4 (≈ 8.47 µg/mL) |  | 8 (≈ 16.9 µg/mL) |  |  | CC[C@H](C)[C@H](NC(=O)[C@H](CCCCN)NC(=O)[C@H](CCCCN)NC(=O)[C@@H](NC(=O)[C@@H](NC(=O)[C@H](CCCCN)NC(=O)[C@H](CCCCN)NC(=O)[C@@H](NC(=O)[C@@H](NC(=O)[C@H](CCCCN)NC(=O)[C@H](CCCCN)NC(=O)[C@@H](NC(=O)[C@@H](NC(=O)[C@H](CCCCN)NC(=O)[C@H](CCCCN)NC(=O)[C@@H](NC(=O)[C@@H](NC(=O)CN)[C@@H](C)CC)[C@@H](C)CC)[C@@H](C)CC)[C@@H](C)CC)[C@@H](C)CC)[C@@H](C)CC)[C@@H](C)CC)[C@@H](C)CC)C(N)=O [GIIKKIIKKIIKKIIKKI] | MIC [5]: 4 µM (≈ 8.47 µg/mL); MIC [6]: 8 µM (≈ 16.9 µg/mL); MIC [7]: 4 µM (≈ 8.47 µg/mL); MIC [8]: 2 µM (≈ 4.24 µg/mL); MIC (Bacillus subtilis 168): 0.5 µM (≈ 1.06 µg/mL); MIC [9]: 2 µM (≈ 4.24 µg/mL) |
